Read-outs that look alike come from different tables or passages of the source.
What was measured:
[1] = cited from earlier work
[2] = parameters: species or system human; settings: in vivo
Source text: COAST was a 6-month, double-blind, block-randomized placebo-controlled study involving 81 healthy participants between 18 and 65 years old. Participant recruitment and assessment commenced on December 2017 and ended on December 2018. Recruitment was achieved through local media and advertisement at the Waterford Institute of Technology, local fitness centers, and with employees of an industry based in Waterford, Ireland. […] Every participant enrolled in the study provided written informed consent prior to commencement. The study protocol was approved May 2017 by the Research Ethics Committees of the Waterford Institute of Technology (Waterford, Ireland) and the HSE, South Eastern Area (University Hospital Waterford, Waterford, Ireland). Industrial Orgánica, S.A. de C.V., the manufacturer of the nutritional supplements, had no role in the design of the study, the collection and analysis of the data, or the preparation of manuscripts. All vouch for the accuracy of the data and the fidelity of the study to the protocol. COAST was a five-arm intervention study, where participants were randomly allocated, with equal probability and separately for men and women, to one of four active intervention groups or to a placebo group. Label claims of the nutritional content in the intervention supplements were as follows: Group 1, L (10 mg)+MZ (10 mg)+Z (2 mg) provided in one capsule; Group 2, L (10 mg)+MZ (10 mg)+Z (2 mg) provided in two capsules; […] Therefore, it was decided to present the dosages of the formulations as stated by label claim. […] Serum carotenoid concentrations were analyzed as the total concentrations (μmol/L) for each of the carotenoids in serum. […] Outcome variables were recorded at baseline and at 6 months. […] Calibration lines used, as well as lower and upper limits of quantification (LLOQ and ULOQ respectively), are as previously performed. Serum carotenoid analysis was completed in sixteen independent batches, with a maximum intra-day precision of 7.28%, measured as RSD, and an inter-day precision of 3.16% (RSD). […]

[3] = hens; cited from earlier work

Compound | increase of serum L ([1]; AREDS 2 study) | increase of serum L ([1]; CREST AMD study) | serum response compared to group supplemented with free L ([1]; previous clinical trial) | MPOD improvements compared to free L supplementation ([1]; previous report) | serum response compared to free carotenoid as crystals [2] | deposition of carotenoid in egg yolk compared to free form [3]
CC1=C[C@H](O)CC(C)(C)[C@H]1/C=C/C(C)=C/C=C/C(C)=C/C=C/C=C(C)/C=C/C=C(C)/C=C/C1=C(C)C[C@@H](O)CC1(C)C [L, (3R,3′R,6R)-lutein, reference compound] | 200% | 304% |  |  |  | 
CC(=O)O[C@@H]1CC(C)=C(/C=C/C(C)=C/C=C/C(C)=C/C=C/C=C(C)/C=C/C=C(C)/C=C/[C@H]2C(C)=C[C@H](OC(C)=O)CC2(C)C)C(C)(C)C1 [Ld, (3R,3′R,6R)-lutein diacetate] |  |  | slightly higher and not statistically different | superior and significant response | remained similar | similar
CC(=O)OC1CC(C)=C(C=CC(C)=CC=CC(C)=CC=CC=C(C)C=CC=C(C)C=CC2=C(C)CC(OC(C)=O)CC2(C)C)C(C)(C)C1 (stereo not drawn) [MZd, meso-zeaxanthin diacetate] |  |  |  |  | significantly greater | greater capability
CC(=O)O[C@@H]1CC(C)=C(/C=C/C(C)=C/C=C/C(C)=C/C=C/C=C(C)/C=C/C=C(C)/C=C/C2=C(C)C[C@@H](OC(C)=O)CC2(C)C)C(C)(C)C1 [Zd, (3R,3′R)-zeaxanthin diacetate] |  |  |  |  | significantly greater | greater capability
